Measured values published in ChEMBL document CHEMBL1255267, “Reduced Susceptibility of Proteus mirabilis to triclosan” (2008).
In brackets after ≈: the same amount, converted by molar mass.

Assays:
Format in all cases: functional
[1] = system: Proteus mirabilis; assay: Antibacterial activity against Proteus mirabilis NP43 after 18 hrs by Etest method; details: NP43, 18 h
[2] = system: Proteus mirabilis; assay: Effect on catheter blockage in Bladder model inoculated with Proteus mirabilis M 55 mutant
[3] = system: Proteus mirabilis; assay: Effect on pH of residual urine at time of catheter blockage in Bladder model inoculated with Proteus mirabilis M 55 mutant
[4] = system: Proteus mirabilis; assay: Antibacterial activity against Proteus mirabilis M 12 mutant after 18 hrs by Etest method; details: M 12, 18 h
[5] = system: Proteus mirabilis; assay: Antibacterial activity against Proteus mirabilis NP37 after 18 hrs by Etest method; details: NP37, 18 h
[6] = system: Proteus mirabilis; assay: Antibacterial activity against Proteus mirabilis M 31 mutant after 18 hrs by Etest method; details: M 31, 18 h
[7] = system: Proteus mirabilis; assay: Antibacterial activity against Proteus mirabilis M 17 mutant after 18 hrs by Etest method; details: M 17, 18 h
[8] = system: Proteus mirabilis; assay: Antibacterial activity against Proteus mirabilis M 55 mutant after 18 hrs by Etest method; details: M 55, 18 h
[9] = system: Escherichia coli; assay: Antibacterial activity against Escherichia coli 10418 after 18 hrs by Etest method; details: Escherichia coli, 10418, 18 h
[10] = system: Proteus mirabilis; assay: Antibacterial activity against Proteus mirabilis M 26 mutant after 18 hrs by Etest method; details: M 26, 18 h
[11] = system: Proteus mirabilis; assay: Antibacterial activity against Proteus mirabilis M 42 mutant after 18 hrs by Etest method; details: M 42, 18 h
[12] = system: Proteus mirabilis; assay: Antibacterial activity against Proteus mirabilis M 19 mutant after 18 hrs by Etest method; details: M 19, 18 h
[13] = system: Proteus mirabilis; assay: Antibacterial activity against Proteus mirabilis B2 after 18 hrs by Etest method; details: B2, 18 h
[14] = system: Proteus mirabilis; assay: Antibacterial activity against Proteus mirabilis NP55 after 18 hrs by Etest method; details: NP55, 18 h
[15] = system: Proteus mirabilis; assay: Antibacterial activity against Proteus mirabilis M 29 mutant after 18 hrs by Etest method; details: M 29, 18 h
[16] = system: Proteus mirabilis; assay: Effect on viable cells in urine at time of catheter blockage in Bladder model inoculated with Proteus mirabilis M 55 mutant
[17] = system: Proteus mirabilis; assay: Effect on pH of residual urine at time of catheter blockage in Bladder model inoculated with wild-type Proteus mirabilis B2
[18] = system: Proteus mirabilis; assay: Effect on catheter blockage in Bladder model inoculated with Proteus mirabilis M 48 mutant
[19] = system: Proteus mirabilis; assay: Antibacterial activity against Proteus mirabilis M 44 mutant after 18 hrs by Etest method; details: M 44, 18 h
[20] = system: Proteus mirabilis; assay: Antibacterial activity against Proteus mirabilis M 23 mutant after 18 hrs by Etest method; details: M 23, 18 h
[21] = system: Proteus mirabilis; assay: Antibacterial activity against Proteus mirabilis M 35 mutant after 18 hrs by Etest method; details: M 35, 18 h
[22] = system: Proteus mirabilis; assay: Effect on viable cells in urine at time of catheter blockage in Bladder model inoculated with wild-type Proteus mirabilis B2
[23] = system: Proteus mirabilis; assay: Effect on viable cells in urine at time of catheter blockage in Bladder model inoculated with Proteus mirabilis M 48 mutant
[24] = system: Proteus mirabilis; assay: Antibacterial activity against Proteus mirabilis M 21 mutant after 18 hrs by Etest method; details: M 21, 18 h
[25] = system: Proteus mirabilis; assay: Effect on catheter blockage in Bladder model inoculated with wild-type Proteus mirabilis B2
[26] = system: Proteus mirabilis; assay: Effect on pH of residual urine at time of catheter blockage in Bladder model inoculated with Proteus mirabilis M 48 mutant
[27] = system: Proteus mirabilis; assay: Antibacterial activity against Proteus mirabilis M 40 mutant after 18 hrs by Etest method; details: M 40, 18 h
[28] = system: Proteus mirabilis; assay: Antibacterial activity against Proteus mirabilis NP14 after 18 hrs by Etest method; details: NP14, 18 h
[29] = system: Proteus mirabilis; assay: Antibacterial activity against Proteus mirabilis M 48 mutant after 18 hrs by Etest method; details: M 48, 18 h

Structure (SMILES) | MIC [1] [µg/mL] | MIC [4] [µg/mL] | MIC [5] [µg/mL] | MIC [6] [µg/mL] | MIC [7] [µg/mL] | MIC [8] [µg/mL] | MIC [9] [µg/mL] | MIC [10] [µg/mL] | MIC [11] [µg/mL] | MIC [12] [µg/mL] | MIC [13] [µg/mL] | MIC [14] [µg/mL] | MIC [15] [µg/mL] | MIC [19] [µg/mL] | MIC [20] [µg/mL] | MIC [21] [µg/mL] | MIC [24] [µg/mL] | MIC [27] [µg/mL] | MIC [28] [µg/mL] | MIC [29] [µg/mL] | other results
Oc1cc(Cl)ccc1Oc1ccc(Cl)cc1Cl [TRICLOSAN] | 0.2 (≈ 0.691 µM) | 40 (≈ 138 µM) | 0.1 (≈ 0.345 µM) | 5 (≈ 17.3 µM) | 40 (≈ 138 µM) | 40 (≈ 138 µM) | 0.2 (≈ 0.691 µM) | 20 (≈ 69.1 µM) | 0.8 (≈ 2.76 µM) | 40 (≈ 138 µM) | 0.2 (≈ 0.691 µM) | 0.2 (≈ 0.691 µM) | 10 (≈ 34.5 µM) | 40 (≈ 138 µM) | 5 (≈ 17.3 µM) | 40 (≈ 138 µM) | 5 (≈ 17.3 µM) | 40 (≈ 138 µM) | 0.2 (≈ 0.691 µM) | 2 (≈ 6.91 µM) | Time [2]: 44 h; pH [3]: 8.84; CFU/ml [16]: 4.2 ×10⁷ /ml; pH [17]: 6.28; Time [18]: >48 h; CFU/ml [22]: 2.07 ×10³ /ml; CFU/ml [23]: 5.44 ×10⁴ /ml; Time [25]: >48 h; pH [26]: 6.51
O=C(O)c1cn(C2CC2)c2cc(N3CCNCC3)c(F)cc2c1=O [CIPROFLOXACIN] | 0.01 (≈ 0.0302 µM) | 0.006 (≈ 0.0181 µM) | 0.02 (≈ 0.0604 µM) | 0.008 (≈ 0.0241 µM) | 0.006 (≈ 0.0181 µM) | 0.02 (≈ 0.0604 µM) | – | 0.012 (≈ 0.0362 µM) | 0.016 (≈ 0.0483 µM) | 0.05 (≈ 0.151 µM) | 0.02 (≈ 0.0604 µM) | 0.016 (≈ 0.0483 µM) | 0.008 (≈ 0.0241 µM) | 0.03 (≈ 0.0905 µM) | 0.05 (≈ 0.151 µM) | 0.016 (≈ 0.0483 µM) | 0.05 (≈ 0.151 µM) | 0.012 (≈ 0.0362 µM) | 0.06 (≈ 0.181 µM) | 0.02 (≈ 0.0604 µM) | –
CCn1cc(C(=O)O)c(=O)c2ccc(C)nc21 [NALIDIXIC ACID] | 2 (≈ 8.61 µM) | 1.5 (≈ 6.46 µM) | 4 (≈ 17.2 µM) | 1.5 (≈ 6.46 µM) | 2 (≈ 8.61 µM) | 1.5 (≈ 6.46 µM) | 0.38 (≈ 1.64 µM) | 1.5 (≈ 6.46 µM) | 2 (≈ 8.61 µM) | 2 (≈ 8.61 µM) | 2 (≈ 8.61 µM) | 3 (≈ 12.9 µM) | 2 (≈ 8.61 µM) | 1.5 (≈ 6.46 µM) | 2 (≈ 8.61 µM) | 2 (≈ 8.61 µM) | 3 (≈ 12.9 µM) | 1.5 (≈ 6.46 µM) | 3 (≈ 12.9 µM) | 1.5 (≈ 6.46 µM) | –
CC1=C(C(=O)O)N2C(=O)[C@@H](NC(=O)[C@H](N)c3ccccc3)[C@H]2SC1 [CEPHALEXIN ANHYDROUS] | 4 (≈ 11.5 µM) | 1.5 (≈ 4.32 µM) | 4 (≈ 11.5 µM) | 3 (≈ 8.64 µM) | 1 (≈ 2.88 µM) | 4 (≈ 11.5 µM) | 2 (≈ 5.76 µM) | 3 (≈ 8.64 µM) | 4 (≈ 11.5 µM) | 4 (≈ 11.5 µM) | 6 (≈ 17.3 µM) | 4 (≈ 11.5 µM) | 2 (≈ 5.76 µM) | 4 (≈ 11.5 µM) | 3 (≈ 8.64 µM) | 3 (≈ 8.64 µM) | 3 (≈ 8.64 µM) | 3 (≈ 8.64 µM) | 3 (≈ 8.64 µM) | 3 (≈ 8.64 µM) | –
CCn1cc(C(=O)O)c(=O)c2cc(F)c(N3CCNCC3)cc21 [NORFLOXACIN] | 0.05 (≈ 0.157 µM) | 0.02 (≈ 0.0626 µM) | 0.05 (≈ 0.157 µM) | 0.02 (≈ 0.0626 µM) | 0.02 (≈ 0.0626 µM) | 0.05 (≈ 0.157 µM) | 0.02 (≈ 0.0626 µM) | 0.03 (≈ 0.0939 µM) | 0.03 (≈ 0.0939 µM) | 0.19 (≈ 0.595 µM) | 0.05 (≈ 0.157 µM) | 0.05 (≈ 0.157 µM) | 0.03 (≈ 0.0939 µM) | 0.05 (≈ 0.157 µM) | 0.19 (≈ 0.595 µM) | 0.03 (≈ 0.0939 µM) | 0.19 (≈ 0.595 µM) | 0.03 (≈ 0.0939 µM) | 0.25 (≈ 0.783 µM) | 0.05 (≈ 0.157 µM) | –
